Experimental data: patent US20240109891A1, “NOVEL SUBSTITUTED TRICYCLIC AZA-HETEROCYCLES AS SOS1 INHIBITORS” (Viva Star Biosciences (Suzhou) Co., Ltd., priority 2021, published 2024)

How the values were obtained:
[1] = biological target: T1, KRAS-WT and SOS1 proteins (Homo sapiens, UniProt Q07889); test: KRAS-WT/SOS1 binding assay (HTRF); settings: Tag1-SOS1 / Tag2-KRAS-WT, 10 μM GTP, read-out: Activity Data in Kras: SOS1 Assay, Wild Type
T1 construct: purchased Cisbio 63ADK000CB15PEG
T1 sequence (Q07889 1-1333): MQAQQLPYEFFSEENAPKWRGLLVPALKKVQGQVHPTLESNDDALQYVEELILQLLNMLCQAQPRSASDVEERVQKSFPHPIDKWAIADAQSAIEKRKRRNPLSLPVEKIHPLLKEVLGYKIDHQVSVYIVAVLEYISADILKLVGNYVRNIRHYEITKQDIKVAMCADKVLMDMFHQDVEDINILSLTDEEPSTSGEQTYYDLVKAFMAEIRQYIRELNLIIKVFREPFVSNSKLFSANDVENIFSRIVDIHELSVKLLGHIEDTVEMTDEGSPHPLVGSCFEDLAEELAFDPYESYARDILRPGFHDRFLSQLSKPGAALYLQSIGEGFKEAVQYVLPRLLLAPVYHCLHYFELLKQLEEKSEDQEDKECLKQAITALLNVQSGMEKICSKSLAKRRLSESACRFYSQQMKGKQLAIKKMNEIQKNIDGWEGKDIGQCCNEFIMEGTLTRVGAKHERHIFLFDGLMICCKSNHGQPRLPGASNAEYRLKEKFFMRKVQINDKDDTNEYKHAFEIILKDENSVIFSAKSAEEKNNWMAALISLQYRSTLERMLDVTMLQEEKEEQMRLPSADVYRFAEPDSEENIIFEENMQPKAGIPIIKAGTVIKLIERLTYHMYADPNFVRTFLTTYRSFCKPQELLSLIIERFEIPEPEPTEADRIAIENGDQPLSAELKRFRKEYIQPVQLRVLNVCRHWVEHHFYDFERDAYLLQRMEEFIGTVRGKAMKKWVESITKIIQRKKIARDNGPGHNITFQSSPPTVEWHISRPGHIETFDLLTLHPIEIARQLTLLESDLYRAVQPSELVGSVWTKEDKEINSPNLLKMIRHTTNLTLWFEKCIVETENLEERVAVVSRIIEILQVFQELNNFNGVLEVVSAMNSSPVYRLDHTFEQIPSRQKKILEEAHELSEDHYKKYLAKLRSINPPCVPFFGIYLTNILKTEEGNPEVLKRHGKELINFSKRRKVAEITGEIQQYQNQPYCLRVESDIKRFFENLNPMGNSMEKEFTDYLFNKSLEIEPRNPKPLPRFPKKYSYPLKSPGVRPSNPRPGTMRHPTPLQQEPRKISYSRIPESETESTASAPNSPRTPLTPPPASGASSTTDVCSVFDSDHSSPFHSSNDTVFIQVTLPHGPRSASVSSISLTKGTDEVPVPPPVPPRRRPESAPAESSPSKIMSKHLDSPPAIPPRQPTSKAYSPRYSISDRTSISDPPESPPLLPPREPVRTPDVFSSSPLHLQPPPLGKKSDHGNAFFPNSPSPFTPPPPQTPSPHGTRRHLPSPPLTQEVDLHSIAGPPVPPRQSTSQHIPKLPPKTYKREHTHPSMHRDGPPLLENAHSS
Protocol: (§1) KRAS-WT (or G12C/G12D/G12V)/SOS1 Binding Assay
(§2) Low IC50 values are indicative of high potency of the SOS1 inhibitor compounds in this assay setting.
(§3) The KRAS-WT (or G12C/G12D/G12V)/SOS1 binding assay is performed using an assay kit (Cisbio, Cat #63ADK000CB15PEG or 63ADK000CB16PEG/63ADK000CB17PEG/63ADK000CB18PEG) according to the procedure recommended by the manufacturer. • 1) Thaw and prepare the working solution of Tag1-SOS1 protein and Tag2-KRAS-WT (or G12C/G12D/G12V) protein with final concentration of 10 μM GTP (Sigma, Cat #V900868). • 2) Thaw and prepare the working solution of anti-Tag1-Tb^3+ anti-Tag2-XL665. • 3) Dispense 2 μL of serially diluted compound, 4 μL of Tag1-SOS1 protein and 4 μL of Tag2-KRAS-WT (or G12C/G12D/G12V) protein with GTP into a ProxiPlate-384 Plus, white 384-shallow well microplate (PerkinElmer, Cat #6008280). • 4) Incubate the plate for 15 minutes at room temperature. • 5) Dispense 10 μL of pre-mixed anti-Tag1-Tb^3+ and anti-Tag2-XL665 into the plate. • 6) Seal the plate and incubate for 2 hours at room temperature. • 7) Remove the plate sealer and read on PHERAstar FS (BMG LABTECH, PHERAstar FS). • 8) Calculate the ratio of the acceptor and donor emission signals for each individual well using the following equation.
(§4) [formula] • 9) IC50 values are fitted and calculated by HTRF signal values and log of compound concentrations to nonlinear regression [Log (inhibitor) vs. Response−Variable Slope (four parameters)] using the GraphPad Prism 8.0.

[2] = biological target: T2, KRAS G12D and SOS1 proteins (Homo sapiens, UniProt Q07889); test: KRAS-G12D/SOS1 binding assay (HTRF); settings: Tag1-SOS1 / Tag2-KRAS G12D, 10 μM GTP
T2 construct: purchased Cisbio 63ADK000CB17PEG
T2 sequence (Q07889 1-1333): T1 sequence (Q07889 1-1333)
Protocol: as §1, §2, §3, §4

| Structure (SMILES) | IC50 [1] | IC50 [2] |
| --- | --- | --- |
| CC(=O)N1CCC(c2cc3c(N[C@H](C)c4cccc5c4CCC5(F)F)nc(C)nc3n3cnnc23)CC1 [Example 7, (R)-1-(4-(4-((1-(1,1-difluoro-2,3-dihydro-1H-inden-4-yl)ethyl)amino)-2-methyl-[1,2,4]triazolo[4′,3′:1,6]pyrido[2,3-d]pyrimidin-6-yl)piperidin-1-yl)ethanone] | < 100 nM | < 100 nM |
| Cc1nc(N[C@H](C)c2cccc3c2CCC3(F)F)c2cc(C3CCN(S(C)(=O)=O)CC3)c3nncn3c2n1 [Example 8, (R)-N-(1-(1,1-difluoro-2,3-dihydro-1H-inden-4-yl)ethyl)-2-methyl-6-(1-(methylsulfonyl)piperidin-4-yl)-[1,2,4]triazolo[4′,3′:1,6]pyrido[2,3-d]pyrimidin-4-amine] | < 100 nM | < 100 nM |
| CC(=O)N1CCC(c2cc3c(N[C@H](C)c4cccc(C(F)(F)F)c4)nc(C)nc3n3cnnc23)CC1 [Example 9, (R)-1-(4-(2-methyl-4-((1-(3-(trifluoromethyl)phenyl)ethyl)amino)-[1,2,4]triazolo[4′,3′:1,6]pyrido[2,3-d]pyrimidin-6-yl)piperidin-1-yl)ethan-1-one] | < 100 nM | < 100 nM |
| COCC(=O)N1CCC(c2cc3c(N[C@H](C)c4cccc5c4CCC5(F)F)nc(C)nc3n3cnnc23)CC1 [Example 10, (R)-1-(4-(4-((1-(1,1-difluoro-2,3-dihydro-1H-inden-4-yl)ethyl)amino)-2-methyl-[1,2,4]triazolo[4′,3′:1,6]pyrido[2,3-d]pyrimidin-6-yl)piperidin-1-yl)-2-methoxyethan-1-one] | < 100 nM | < 100 nM |
| COCC(=O)N1CCC(c2cc3c(N[C@H](C)c4cccc(C(F)(F)CO)c4)nc(C)nc3n3cnnc23)CC1 [Example 11, (R)-1-(4-(4-((1-(3-(1,1-difluoro-2-hydroxyethyl)phenyl)ethyl)amino)-2-methyl-[1,2,4]triazolo[4′,3′:1,6]pyrido[2,3-d]pyrimidin-6-yl)piperidin-1-yl)-2-methoxyethan-1-one] | < 100 nM | < 100 nM |
| CC(=O)N1CCC(c2cc3c(N[C@H](C)c4cccc(C(F)(F)CO)c4)nc(C)nc3n3cnnc23)CC1 [Example 12, (R)-1-(4-(4-((1-(3-(1,1-difluoro-2-hydroxyethyl)phenyl)ethyl)amino)-2-methyl-[1,2,4]triazolo[4′,3′:1,6]pyrido[2,3-d]pyrimidin-6-yl)piperidin-1-yl)ethan-1-one] | < 100 nM | < 100 nM |
| CC(=O)N1CCC(c2cc3c(N[C@H](C)c4cc(C(C)(C)O)cc(C(F)(F)F)c4)nc(C)nc3n3cnnc23)CC1 [Example 13, (R)-1-(4-(4-((1-(3-(2-hydroxypropan-2-yl)-5-(trifluoromethyl)phenyl)ethyl)amino)-2-methyl-[1,2,4]triazolo[4′,3′:1,6]pyrido[2,3-d]pyrimidin-6-yl)piperidin-1-yl)ethan-1-one] | > 5000 nM | > 5000 nM |
| Cc1nc(N[C@H](C)c2cccc(C(F)(F)CO)c2)c2cc(C3CCNCC3)c3nncn3c2n1 [Example 14, (R)-2,2-difluoro-2-(3-(1-((2-methyl-6-(piperidin-4-yl)-[1,2,4]triazolo[4′,3′:1,6]pyrido[2,3-d]pyrimidin-4-yl)amino)ethyl)phenyl)ethan-1-ol] | < 100 nM | < 100 nM |
| Cc1nc(N[C@H](C)c2cccc(C(F)(F)CO)c2)c2cc([C@H]3CC[C@@H](O)CC3)c3nncn3c2n1 [Example 15, Cis-(R)-4-(4-((1-(3-(1,1-difluoro-2-hydroxyethyl)phenyl)ethyl)amino)-2-methyl-[1,2,4]triazolo[4′,3′:1,6]pyrido[2,3-d]pyrimidin-6-yl)cyclohexan-1-ol] | < 100 nM | < 100 nM |
| Cc1nc(N[C@H](C)c2cccc(C(F)(F)CO)c2)c2cc([C@H]3CC[C@H](O)CC3)c3nncn3c2n1 [Example 16, Trans-(R)-4-(4-((1-(3-(1,1-difluoro-2-hydroxyethyl)phenyl)ethyl)amino)-2-methyl-[1,2,4]triazolo[4′,3′:1,6]pyrido[2,3-d]pyrimidin-6-yl)cyclohexan-1-ol] | < 100 nM | < 100 nM |
| Cc1nc(N[C@H](C)c2cccc(C(F)(F)F)c2)c2cc(O[C@H]3CCOC3)c3nncn3c2n1 [Example 17, 12-methyl-7-(oxolan-3-yloxy)-N-[(1R)-1-[3-(trifluoromethyl)phenyl]ethyl]-2,4,5,11,13-pentaazatricyclo[7.4.0.0^{2,6}]trideca-1(9),3,5,7,10,12-hexaen-10-amine] | 100 to 500 nM | 100 to 500 nM |
| Cc1nc(N[C@H](C)c2cc(N)cc(C(F)(F)F)c2)c2cc(O[C@H]3CCOC3)c3nncn3c2n1 [Example 18, N-[(1R)-1-[3-amino-5-(trifluoromethyl)phenyl]ethyl]-12-methyl-7-(oxolan-3-yloxy)-2,4,5,11,13-pentaazatricyclo[7.4.0.0^{2,6}]trideca-1(9),3,5,7,10,12-hexaen-10-amine] | < 100 nM | < 100 nM |
| Cc1nc(N[C@H](C)c2cccc3c2CCC3(F)F)c2cc(O[C@H]3CCOC3)c3nncn3c2n1 [Example 19, N-((R)-1-(1,1-difluoro-2,3-dihydro-1H-inden-4-yl)ethyl)-2-methyl-6-(((S)-tetrahydrofuran-3-yl)oxy)-[1,2,4]triazolo[4′,3′:1,6]pyrido[2,3-d]pyrimidin-4-amine] | < 100 nM | < 100 nM |
| Cc1nc(N[C@H](C)c2cccc(C(F)(F)CO)c2)c2cc(O[C@H]3CCOC3)c3nncn3c2n1 [Example 20, 2,2-difluoro-2-(3-((R)-1-((2-methyl-6-(((S)-tetrahydrofuran-3-yl)oxy)-[1,2,4]triazolo[4′,3′:1,6]pyrido[2,3-d]pyrimidin-4-yl)amino)ethyl)phenyl)ethan-1-ol] | < 100 nM | 100 to 500 nM |
| CC(=O)N1CC[C@H](Oc2cc3c(N[C@H](C)c4cccc5c4CCC5(F)F)nc(C)nc3n3cnnc23)C1 [Example 21, 1-((S)-3-((4-(((R)-1-(1,1-difluoro-2,3-dihydro-1H-inden-4-yl)ethyl)amino)-2-methyl-[1,2,4]triazolo[4′,3′:1,6]pyrido[2,3-d]pyrimidin-6-yl)oxy)pyrrolidin-1-yl)ethan-1-one] | < 100 nM | < 100 nM |
| Cc1nc(N[C@H](C)c2cccc(C(F)(F)CO)c2)c2cc(O[C@H]3CCN(C)C3)c3nncn3c2n1 [Example 22, 2,2-difluoro-2-(3-((R)-1-((2-methyl-6-(((S)-1-methylpyrrolidin-3-yl)oxy)-[1,2,4]triazolo[4′,3′:1,6]pyrido[2,3-d]pyrimidin-4-yl)amino)ethyl)phenyl)ethan-1-ol] | < 100 nM | < 100 nM |
